Test system: Landrace x Large White reserve sows
Test: Heat detection: estrus rate and estrus time in gilts, different doses (Example 2)
Type: in vivo, pigs
Description: Landrace x Large White reserve sows, about 230 days old, were randomly divided into a batch farrowing with FTAI and batch farrowing with FTAI combined with different doses of 1-[bis(4-cyanophenyl)methyl]-1,2,4-triazole groups, and during the experiment, the experimental sows in each group were fed regularly and gained free access to water according to the requirements of feeding management in the farm.
Referring to the dosage of 1-[bis(4-cyanophenyl)methyl]-1,2,4-triazole in clinical medicine and using standard weight-dosage conversion, the recommended dosage of 1-[bis(4-cyanophenyl)methyl]-1,2,4-triazole for sows was 50-150 μg/kg·BW/day, orally for consecutive 5 days, as derived by conversion. In addition, the applicant previously studied uniparous cows, and in the ovulation induction scheme, the reference dosage of 1-[bis(4-cyanophenyl)methyl]-1,2,4-triazole was 60-200 μg/kg·BW, administered in a single dose; furthermore, by means of conversion in conjunction with the dosage for model animals (mice) previously in the laboratory, various dosages were designed. The treatment methods of hormones and drugs for sows in each group were as follows: • batch farrowing with FTAI: the sows were fed with an altrenogest oral solution at 20 mg/animal at the same time every day, for 18 days; PMSG at 1000 IU/animal was injected intramuscularly 42 h after the last feeding with altrenogest, GnRH at 100 μg/animal was injected intramuscularly 80 h after the injection of PMSG, a first timed insemination was performed 24 h after the injection of GnRH, and a second timed insemination was performed 16 h after the first insemination.
(§1) Treatment group 1: the hormone treatment and mating schemes for gilts were the same as FTAI. The difference lay in that PMSG at 1000 IU/gilt was injected intramuscularly 42 h after the last feeding with altrenogest, and 1-[bis(4-cyanophenyl)methyl]-1,2,4-triazole at 12 μg/kg·BW/day was administered orally 8 h after the injection of PMSG, for 1 day.
as §1, with “2:” for “1:”, “2 days.” for “1 day.”
as §1, with “3:” for “1:”, “20” for “12”
as §1, with “4:” for “1:”, “sows” for “gilts”, “1-[bis (4-cyanophenyl)methyl]-1,2,4-triazole” for “1-[bis(4-cyanophenyl)methyl]-1,2,4-triazole”, “20” for “12”, “2 days.” for “1 day.”
as §1, with “5:” for “1:”, “IU/animal” for “IU/gilt”, “20” for “12”, “3 days.” for “1 day.”
as §1, with “6:” for “1:”, “IU/animal” for “IU/gilt”, “20” for “12”, “5 days.” for “1 day.”
Treatment group 7: the hormone treatment and mating schemes for gilts were the same as FTAI. […]

N#Cc1ccc(C(c2ccc(C#N)cc2)n2cncn2)cc1 [1-[bis(4-cyanophenyl)methyl]-1,2,4-triazole]
Number of estrous animals at different times after stopping Altrenogest (day/animal) (day 5.5, Example 2 Treatment group 5: 20 μg/kg·BW/day orally, 3 days, gilts): 6 animal | Number of estrous animals at different times after stopping Altrenogest (day/animal) (day 5.5, Example 2 Treatment group 6: 20 μg/kg·BW/day orally, 5 days, gilts): 0 animal | Number of estrous animals at different times after stopping Altrenogest (day/animal) (day 5.5, Example 2 Treatment group 7: 40 μg/kg·BW/day orally, 1 day, gilts): 2 animal | Number of estrous animals at different times after stopping Altrenogest (day/animal) (day 5.5, Example 2 Treatment group 8: 40 μg/kg·BW/day orally, 5 days, gilts): 0 animal | Number of estrous animals at different times after stopping Altrenogest (day/animal) (day 6, Example 2 Treatment group 1: 12 μg/kg·BW/day orally, 1 day, gilts): 8 animal | Number of estrous animals at different times after stopping Altrenogest (day/animal) (day 6, Example 2 Treatment group 2: 12 μg/kg·BW/day orally, 2 days, gilts): 7 animal | Number of estrous animals at different times after stopping Altrenogest (day/animal) (day 6, Example 2 Treatment group 3: 20 μg/kg·BW/day orally, 1 day, gilts): 7 animal | Number of estrous animals at different times after stopping Altrenogest (day/animal) (day 6, Example 2 Treatment group 4: 20 μg/kg·BW/day orally, 2 days, gilts): 6 animal | Number of estrous animals at different times after stopping Altrenogest (day/animal) (day 6, Example 2 Treatment group 5: 20 μg/kg·BW/day orally, 3 days, gilts): 7 animal | Number of estrous animals at different times after stopping Altrenogest (day/animal) (day 6, Example 2 Treatment group 6: 20 μg/kg·BW/day orally, 5 days, gilts): 5 animal | Number of estrous animals at different times after stopping Altrenogest (day/animal) (day 6, Example 2 Treatment group 7: 40 μg/kg·BW/day orally, 1 day, gilts): 2 animal | Number of estrous animals at different times after stopping Altrenogest (day/animal) (day 6, Example 2 Treatment group 8: 40 μg/kg·BW/day orally, 5 days, gilts): 2 animal | Number of estrous animals at different times after stopping Altrenogest (day/animal) (day 6.5, Example 2 Treatment group 1: 12 μg/kg·BW/day orally, 1 day, gilts): 4 animal | Number of estrous animals at different times after stopping Altrenogest (day/animal) (day 6.5, Example 2 Treatment group 2: 12 μg/kg·BW/day orally, 2 days, gilts): 3 animal | Number of estrous animals at different times after stopping Altrenogest (day/animal) (day 6.5, Example 2 Treatment group 3: 20 μg/kg·BW/day orally, 1 day, gilts): 5 animal | Number of estrous animals at different times after stopping Altrenogest (day/animal) (day 6.5, Example 2 Treatment group 4: 20 μg/kg·BW/day orally, 2 days, gilts): 4 animal | Number of estrous animals at different times after stopping Altrenogest (day/animal) (day 6.5, Example 2 Treatment group 5: 20 μg/kg·BW/day orally, 3 days, gilts): 3 animal | Number of estrous animals at different times after stopping Altrenogest (day/animal) (day 6.5, Example 2 Treatment group 6: 20 μg/kg·BW/day orally, 5 days, gilts): 3 animal | Number of estrous animals at different times after stopping Altrenogest (day/animal) (day 6.5, Example 2 Treatment group 7: 40 μg/kg·BW/day orally, 1 day, gilts): 9 animal | Number of estrous animals at different times after stopping Altrenogest (day/animal) (day 6.5, Example 2 Treatment group 8: 40 μg/kg·BW/day orally, 5 days, gilts): 2 animal | Number of estrous animals at different times after stopping Altrenogest (day/animal) (day 7, Example 2 Treatment group 1: 12 μg/kg·BW/day orally, 1 day, gilts): 5 animal | Number of estrous animals at different times after stopping Altrenogest (day/animal) (day 7, Example 2 Treatment group 2: 12 μg/kg·BW/day orally, 2 days, gilts): 3 animal | Number of estrous animals at different times after stopping Altrenogest (day/animal) (day 7, Example 2 Treatment group 3: 20 μg/kg·BW/day orally, 1 day, gilts): 2 animal | Number of estrous animals at different times after stopping Altrenogest (day/animal) (day 7, Example 2 Treatment group 4: 20 μg/kg·BW/day orally, 2 days, gilts): 2 animal | Number of estrous animals at different times after stopping Altrenogest (day/animal) (day 7, Example 2 Treatment group 5: 20 μg/kg·BW/day orally, 3 days, gilts): 3 animal | Number of estrous animals at different times after stopping Altrenogest (day/animal) (day 7, Example 2 Treatment group 6: 20 μg/kg·BW/day orally, 5 days, gilts): 8 animal | Number of estrous animals at different times after stopping Altrenogest (day/animal) (day 7, Example 2 Treatment group 7: 40 μg/kg·BW/day orally, 1 day, gilts): 0 animal | Number of estrous animals at different times after stopping Altrenogest (day/animal) (day 7, Example 2 Treatment group 8: 40 μg/kg·BW/day orally, 5 days, gilts): 0 animal | Number of estrous animals at different times after stopping Altrenogest (day/animal) (day 7.5, Example 2 Treatment group 1: 12 μg/kg·BW/day orally, 1 day, gilts): 1 animal | Number of estrous animals at different times after stopping Altrenogest (day/animal) (day 7.5, Example 2 Treatment group 2: 12 μg/kg·BW/day orally, 2 days, gilts): 1 animal | Number of estrous animals at different times after stopping Altrenogest (day/animal) (day 7.5, Example 2 Treatment group 3: 20 μg/kg·BW/day orally, 1 day, gilts): 1 animal | Number of estrous animals at different times after stopping Altrenogest (day/animal) (day 7.5, Example 2 Treatment group 4: 20 μg/kg·BW/day orally, 2 days, gilts): 1 animal | Number of estrous animals at different times after stopping Altrenogest (day/animal) (day 7.5, Example 2 Treatment group 5: 20 μg/kg·BW/day orally, 3 days, gilts): 2 animal | Number of estrous animals at different times after stopping Altrenogest (day/animal) (day 7.5, Example 2 Treatment group 6: 20 μg/kg·BW/day orally, 5 days, gilts): 1 animal | Number of estrous animals at different times after stopping Altrenogest (day/animal) (day 7.5, Example 2 Treatment group 7: 40 μg/kg·BW/day orally, 1 day, gilts): 9 animal | Number of estrous animals at different times after stopping Altrenogest (day/animal) (day 7.5, Example 2 Treatment group 8: 40 μg/kg·BW/day orally, 5 days, gilts): 0 animal | Number of estrous animals at different times after stopping Altrenogest (day/animal) (day 8, Example 2 Treatment group 1: 12 μg/kg·BW/day orally, 1 day, gilts): 0 animal | Number of estrous animals at different times after stopping Altrenogest (day/animal) (day 8, Example 2 Treatment group 2: 12 μg/kg·BW/day orally, 2 days, gilts): 0 animal | Number of estrous animals at different times after stopping Altrenogest (day/animal) (day 8, Example 2 Treatment group 3: 20 μg/kg·BW/day orally, 1 day, gilts): 0 animal | Number of estrous animals at different times after stopping Altrenogest (day/animal) (day 8, Example 2 Treatment group 4: 20 μg/kg·BW/day orally, 2 days, gilts): 0 animal | Number of estrous animals at different times after stopping Altrenogest (day/animal) (day 8, Example 2 Treatment group 5: 20 μg/kg·BW/day orally, 3 days, gilts): 1 animal | Number of estrous animals at different times after stopping Altrenogest (day/animal) (day 8, Example 2 Treatment group 6: 20 μg/kg·BW/day orally, 5 days, gilts): 2 animal | Number of estrous animals at different times after stopping Altrenogest (day/animal) (day 8, Example 2 Treatment group 7: 40 μg/kg·BW/day orally, 1 day, gilts): 0 animal | Number of estrous animals at different times after stopping Altrenogest (day/animal) (day 8, Example 2 Treatment group 8: 40 μg/kg·BW/day orally, 5 days, gilts): 0 animal | estrus on the 8th day after altrenogest was stopped (gilts, 80 and 160 μg/kg·BW/day for 5 consecutive days (treatment groups 9 and 10)): no estrus | estrus rate (gilts, high dose or multiple (5) low doses (treatment groups 6, 8, 9, and 10)): decreased estrus rate or even no estrus | estrus rate (gilts, low dose (treatment groups 1, 2, 3, 4, 5, and 7), compared with FTAI group): not significantly different | estrus in sows (high-dose): inhibited | gilt estrus rate (low-dose, batch farrowing with FTAI): no significant change

Reference: patent publication US12678488B2, “Batch management method for improving farrowing rate or number of piglets born alive in swine” (priority 2024, dated 2026)
